IC50 data for 42 molecules are collected here from patent US20250034110A1, “LPAR1 ANTAGONISTS AND USES THEREOF” (Pipeline Therapeutics, Inc., priority 2021, published 2025).

The structures appear in SMILES notation. Like-named read-outs stand apart in the source and are kept apart here.

For the experiment, the target named is human LPAR1 (Homo sapiens, UniProt Q92633). Kind of experiment: In vitro functional assay of lysophosphatidic acid receptor 1 activity (calcium flux). It counts as cell-based. (A change in cytosolic calcium serves as a functional read-out for many receptors and channels.)
The mark [1] stands for this setting: B103 cells stably expressing human LPAR1, calcium flux (Fluo-4 NW) after lysophosphatidic acid (18:1) at EC80, 100 pM to 10 μM, read-out: LPAR1 IC50.

Chain of human LPAR1 (Q92633 whole entry): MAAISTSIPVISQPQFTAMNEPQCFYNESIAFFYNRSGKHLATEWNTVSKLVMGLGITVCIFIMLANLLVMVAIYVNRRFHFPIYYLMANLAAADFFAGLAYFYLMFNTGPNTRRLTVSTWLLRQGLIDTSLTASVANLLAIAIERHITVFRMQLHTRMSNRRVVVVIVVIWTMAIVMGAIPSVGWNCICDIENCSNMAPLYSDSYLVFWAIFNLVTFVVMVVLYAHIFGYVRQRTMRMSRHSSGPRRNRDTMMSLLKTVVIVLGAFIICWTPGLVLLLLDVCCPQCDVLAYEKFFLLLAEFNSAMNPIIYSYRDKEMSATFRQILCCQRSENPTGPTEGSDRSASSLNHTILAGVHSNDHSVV

For `Cc1ccc(NC(=O)N(c2ccccc2C(C)C)[C@H]2CC[C@H](C(=O)O)CC2)c(OC(F)F)n1` [Example 155, trans-4-(3-(2-(difluoromethoxy)-6-methylpyridin-3-yl)-1-(2-isopropylphenyl)ureido)cyclohexane-1-carboxylic acid], under setting [1], the IC50 lay within 10 to 100 nM.
Consider `COc1ccc(NC(=O)N(c2ccccc2C(C)C)C2CCN(C)C(=O)C2)c(OC(F)F)n1` (stereo not drawn) [Example 44, 3-(2-(difluoromethoxy)-6-methoxypyridin-3-yl)-1-(2-isopropylphenyl)-1-(1-methyl-2-oxopiperidin-4-yl)urea], for which the IC50 under setting [1] was in the range of 10 to 100 nM.
`COc1ccc(NC(=O)N(c2ccccc2C(C)C)C2CC3(CC(C(=O)O)C3)C2)c(OC(F)F)n1` (stereo not drawn) [Example 233]: the half-maximal inhibitory concentration (IC50) under setting [1] lay in the range of 10 to 100 nM.
In the case of `Cc1ccc(NC(=O)N(c2ccccc2C(C)C)[C@H]2C[C@@H](CC(N)=O)C2)c(OC(F)F)n1` [Example 189], the IC50 under setting [1] lay within 100 to 1000 nM.
As for `COc1nc(C(F)F)ccc1NC(=O)N(c1ccccc1C(C)C)C1CCN(C(C)=O)CC1` [Example 113], the IC50 (LPAR1 IC50) fell in the range of 10 to 100 nM.
For the molecule `COc1ccc(NC(=O)N(c2ccccc2C(C)C)C2CN(C(C)=O)C2)c(OC(F)F)n1` [Example 41, 1-(1-acetylazetidin-3-yl)-3-(2-(difluoromethoxy)-6-methoxypyridin-3-yl)-1-(2-isopropylphenyl)urea], the IC50 under setting [1] fell in the range of 100 to 1000 nM.
Same read-out and setting: to `Cc1ccc(NC(=O)N(c2ccccc2C(C)C)C2CC(=O)N(C)C2)c(OC(F)F)n1` (stereo not drawn) [Example 7, 3-(2-(difluoromethoxy)-6-methylpyridin-3-yl)-1-(2-isopropylphenyl)-1-(1-methyl-5-oxopyrrolidin-3-yl)urea] belongs 100 to 1000 nM; to `Cc1ccc(NC(=O)N(c2ccccc2C(C)C)[C@H]2CCN(S(C)(=O)=O)C2)c(OC(F)F)n1` [Example 75, (S)-3-(2-(difluoromethoxy)-6-methylpyridin-3-yl)-1-(2-isopropylphenyl)-1-(1-(methylsulfonyl)pyrrolidin-3-yl)urea], 10 to 100 nM; to `COc1ccc(NC(=O)N(c2ccccc2C(C)C)[C@H]2CC[C@H](C(=O)O)CC2)c(OCCF)n1` [Example 315, (1r,4r)-4-(3-(2-(2-fluoroethoxy)-6-methoxypyridin-3-yl)-1-(2-isopropylphenyl)ureido)cyclohexane-1-carboxylic acid], 10 to 100 nM.
Still for that read-out and setting: the figure for `CC(C)Oc1ccc(NC(=O)N(c2ccccc2C(C)C)[C@H]2CC[C@H](C(=O)O)CC2)c(OC(C)C)n1` [Example 252, (1r,4r)-4-(3-(2,6-diisopropoxypyridin-3-yl)-1-(2-isopropylphenyl)ureido)cyclohexane-1-carboxylic acid] is 100 to 1000 nM.
In the case of `COc1nc(C#N)ccc1NC(=O)N(c1ccccc1C(C)C)C1CCN(C(C)=O)CC1` [Example 185, 1-(1-acetylpiperidin-4-yl)-3-(6-cyano-2-methoxypyridin-3-yl)-1-(2-isopropylphenyl)urea], the IC50 (LPAR1 IC50) fell in the range of 100 to 1000 nM.
Regarding `CC(C)c1ccccc1N(C(=O)Nc1ncc(Br)cc1OC(F)F)C1CC(CC(=O)O)C1` (stereo not drawn) [Example 176], under setting [1], the concentration for half-maximal inhibition (IC50) fell in the range of 10 to 100 nM.
For `CC(C)Oc1cc(C(F)F)ncc1NC(=O)N(c1ccccc1C(C)C)[C@H]1CC[C@H](C(=O)O)CC1` [Example 295, (1r,4r)-4-(3-(6-(difluoromethyl)-4-isopropoxypyridin-3-yl)-1-(2-isopropylphenyl)ureido)cyclohexane-1-carboxylic acid], the IC50 under setting [1] is 100 to 1000 nM.
On to `CC(=O)N1CCC(N(C(=O)Nc2ncc(Br)cc2OC(F)F)c2ncccc2C(C)C)CC1` [Example 142], for which the IC50 (LPAR1 IC50) was greater than 1000 nM.
As for `Cc1ccc(NC(=O)N(c2ccccc2C(C)C)[C@H]2CCC[C@@H](C(=O)O)C2)c(OC(F)F)n1` [Example 285], the IC50 under setting [1] was less than 10 nM.
For `COc1ccc(NC(=O)N(c2ccccc2C(C)C)[C@H]2CC[C@H](C(=O)NO)CC2)c(OC(F)F)n1` [Example 281], under setting [1], the IC50 lay within 10 to 100 nM.
Regarding `CC(=O)N1CCC(N(C(=O)Nc2ncc(C(F)(F)F)cc2Br)c2ccccc2C(C)C)CC1` [Example 139], the half-inhibitory concentration (IC50) (LPAR1 IC50) is greater than 1000 nM.
For the molecule `Cc1ccc(NC(=O)N(c2ccccc2C(C)C)[C@H]2C[C@H](Cc3nnn[nH]3)C2)c(OC(F)F)n1` [Example 191, 1-((1r,3r)-3-((1H-tetrazol-5-yl)methyl)cyclobutyl)-3-(2-(difluoromethoxy)-6-methylpyridin-3-yl)-1-(2-isopropylphenyl)urea], the 50% inhibitory concentration (IC50) under setting [1] is 10 to 100 nM.
Take `Cc1ccc(NC(=O)N(c2ccccc2C(C)C)C2CN(C(=O)CC#N)C2)c(OC(F)F)n1` [Example 81, 1-(1-(2-cyanoacetyl)azetidin-3-yl)-3-(2-(difluoromethoxy)-6-methylpyridin-3-yl)-1-(2-isopropylphenyl)urea]: under setting [1], the IC50 was 10 to 100 nM.
As to `CC(=O)N1CCC(N(C(=O)Nc2cncc(F)c2)c2ccccc2C(C)C)CC1` [Example 246], under “LPAR1 IC50”, the IC50 was greater than 1000 nM.
Take `Cc1ccc(NC(=O)N(c2ccccc2C(C)C)[C@@H]2CCC(=O)N(C)C2)c(OC(F)F)n1` [Example 5, (R)-3-(2-(difluoromethoxy)-6-methylpyridin-3-yl)-1-(2-isopropylphenyl)-1-(1-methyl-6-oxopiperidin-3-yl)urea]: the IC50 under setting [1] lay in the range of 10 to 100 nM.
With `Cc1nc(OC(F)F)c(NC(=O)N(c2ccccc2C(C)C)[C@H]2CC[C@H](C(=O)O)CC2)cc1F` [Example 221, (1r,4r)-4-(3-(2-(difluoromethoxy)-5-fluoro-6-methylpyridin-3-yl)-1-(2-isopropylphenyl)ureido)cyclohexane-1-carboxylic acid], the IC50 under setting [1] is less than 10 nM.
`CC(=O)N1CCC(N(C(=O)Nc2ccc(C)nc2OC(F)F)c2cccnc2C(C)C)CC1` [Example 31, 1-(1-acetylpiperidin-4-yl)-3-(2-(difluoromethoxy)-6-methylpyridin-3-yl)-1-(2-isopropylpyridin-3-yl)urea]: under “LPAR1 IC50”, the 50% inhibitory concentration (IC50) lay within 100 to 1000 nM.
As for `Cc1ccc(NC(=O)N(c2ccccc2C(C)C)C2CN(C(=O)Cn3nccn3)C2)c(OC(F)F)n1` [Example 80, 1-(1-(2-(2H-1,2,3-triazol-2-yl)acetyl)azetidin-3-yl)-3-(2-(difluoromethoxy)-6-methylpyridin-3-yl)-1-(2-isopropylphenyl)urea], the IC50 under setting [1] lay in the range of 100 to 1000 nM.
In the case of `COc1ccc(NC(=O)N(c2ccccc2C(C)C)[C@H]2CCN(C(C)=O)C[C@H]2F)c(OC(F)F)n1` [Example 48, 1-((3R,4S)-1-acetyl-3-fluoropiperidin-4-yl)-3-(2-(difluoromethoxy)-6-methoxypyridin-3-yl)-1-(2-isopropylphenyl)urea], under “LPAR1 IC50”, the IC50 lay in the range of 10 to 100 nM.
As to `Cc1ccc(NC(=O)N(c2ccccc2C(C)C)[C@H]2CC[C@H](CC(C)(C)O)CC2)c(OC(F)F)n1` [Example 247, 3-(2-(difluoromethoxy)-6-methylpyridin-3-yl)-1-((1r,4r)-4-(2-hydroxy-2-methylpropyl)cyclohexyl)-1-(2-isopropylphenyl)urea], the IC50 under setting [1] fell in the range of 10 to 100 nM.
In the case of `COc1ccc(NC(=O)N(c2ccccc2C(C)C)C23CCN(C(C)=O)CC2C3)c(OC(F)F)n1` (stereo not drawn) [Example 61, 1-(3-acetyl-3-azabicyclo[4.1.0]heptan-6-yl)-3-(2-(difluoromethoxy)-6-methoxypyridin-3-yl)-1-(2-isopropylphenyl)urea], the half-maximal inhibitory concentration (IC50) (LPAR1 IC50) was 10 to 100 nM.
As to `Cc1ccc(NC(=O)N(c2ccccc2C(C)C)C2COC2)c(OC(F)F)n1` [Example 14, 3-(2-(difluoromethoxy)-6-methylpyridin-3-yl)-1-(2-isopropylphenyl)-1-(oxetan-3-yl)urea], the IC50 under setting [1] fell in the range of 10 to 100 nM.
On the same count and under the same terms, to `Cc1ccc(NC(=O)N(CC23CC(C(=O)O)(CO2)C3)c2ccccc2C(C)C)c(OC(F)F)n1` [Example 168] belongs 10 to 100 nM.
As for `CC(=O)N1CCC(N(C(=O)Nc2ccc(C(F)(F)F)nc2C)c2ccccc2C(C)C)CC1` [Example 88], the IC50 (LPAR1 IC50) was greater than 1000 nM.
In the case of `Cc1ccc(NC(=O)N(c2ccccc2C(C)C)[C@H]2CC[C@@](C)(C(=O)O)CC2)c(OC(F)F)n1` [Example 308], under setting [1], the IC50 lay in the range of 100 to 1000 nM.
Still for that read-out and setting: the figure for `Cc1cc(OC(F)F)c(NC(=O)N(C[C@H]2C[C@H](C(=O)O)C2)c2ccccc2C(C)C)cn1` [Example 227] is 10 to 100 nM; for `CC(=O)N1CC[C@@H]1CN(C(=O)Nc1ccc(C)nc1OC(F)F)c1ccccc1C(C)C` [Example 71, (R)-1-((1-acetylazetidin-2-yl)methyl)-3-(2-(difluoromethoxy)-6-methylpyridin-3-yl)-1-(2-isopropylphenyl)urea] it is greater than 1000 nM.
For the molecule `CC(=O)N1CCC(N(C(=O)Nc2ncc(F)cc2Br)c2ccccc2C(C)C)CC1` [Example 137], for the setting “LPAR1 IC50”, the IC50 is greater than 1000 nM.
For `C#CCCS(=O)(=O)NC(=O)[C@H]1CC[C@H](N(C(=O)Nc2ccc(OC)nc2OC(F)F)c2ccccc2C(C)C)CC1` [Example 280], the IC50 under setting [1] is less than 10 nM.
Still for that read-out and setting: the figure for `CC(=O)N1CC[C@H](N(C(=O)Nc2ccc(C)nc2OC(F)F)c2ccccc2C(C)C)C1` [Example 68, (S)-1-(1-acetylpyrrolidin-3-yl)-3-(2-(difluoromethoxy)-6-methylpyridin-3-yl)-1-(2-isopropylphenyl)urea] is 10 to 100 nM; for `CC(C)c1ccccc1N(C(=O)Nc1ccc(O)nc1OC(F)F)[C@H]1CC[C@H](C(=O)O)CC1` [Example 320] it is 10 to 100 nM.
On the same count and under the same terms, to `Cc1ccc(NC(=O)N(c2ccccc2C(C)C)[C@H]2CCN(C(=O)OC(C)(C)C)C2)c(OC(F)F)n1` [Example 8, tert-butyl (S)-3-(3-(2-(difluoromethoxy)-6-methylpyridin-3-yl)-1-(2-isopropylphenyl)ureido)pyrrolidine-1-carboxylate] belongs 100 to 1000 nM.
The same measure, in the same setting: to `CC(C)c1ccccc1N(C(=O)Nc1cc(F)c(F)cc1OC(F)F)[C@H]1C[C@@H](CC(=O)O)C1` [Example 329] belongs less than 10 nM; to `COc1cc(Cl)c(F)cc1NC(=O)N(c1ccccc1C(C)C)[C@H]1CC[C@H](C(=O)O)CC1` [Example 333, (1r,4r)-4-(3-(4-chloro-5-fluoro-2-methoxyphenyl)-1-(2-isopropylphenyl)ureido)cyclohexane-1-carboxylic acid], less than 10 nM.
For `COc1ccc(NC(=O)N(c2ccccc2C2CC2)[C@H]2CC[C@H](C(=O)O)CC2)c(OC(F)F)n1` [Example 275], the 50% inhibitory concentration (IC50) under setting [1] was 10 to 100 nM.
Same read-out and setting: to `Cc1ccc(NC(=O)N(CC23CC(C(=O)O)(C2)C3)c2ccccc2C(C)C)c(OC(F)F)n1` [Example 173] belongs 10 to 100 nM.

As usually defined, the IC50 is the concentration needed to halve the response being measured.
